Test results from ChEMBL document CHEMBL4265895, “Novel inhibitors of As(III) S-adenosylmethionine methyltransferase (AS3MT) identified by virtual screening” (Bioorg Med Chem Lett, 2018).

Key:
[1] = target: Histone-lysine N-methyltransferase, H3 lysine-79 specific (Homo sapiens, UniProt Q8TEK3); test: Inhibition of full-length DOT1L (unknown origin) using HeLa oligonucleosome as substrate preincubated for 15 mins followed by substrate addition measured after 45 mins in presence of SAM by MTaseGlo assay
Histone-lysine N-methyltransferase, H3 lysine-79 specific, sequence (Q8TEK3 whole entry): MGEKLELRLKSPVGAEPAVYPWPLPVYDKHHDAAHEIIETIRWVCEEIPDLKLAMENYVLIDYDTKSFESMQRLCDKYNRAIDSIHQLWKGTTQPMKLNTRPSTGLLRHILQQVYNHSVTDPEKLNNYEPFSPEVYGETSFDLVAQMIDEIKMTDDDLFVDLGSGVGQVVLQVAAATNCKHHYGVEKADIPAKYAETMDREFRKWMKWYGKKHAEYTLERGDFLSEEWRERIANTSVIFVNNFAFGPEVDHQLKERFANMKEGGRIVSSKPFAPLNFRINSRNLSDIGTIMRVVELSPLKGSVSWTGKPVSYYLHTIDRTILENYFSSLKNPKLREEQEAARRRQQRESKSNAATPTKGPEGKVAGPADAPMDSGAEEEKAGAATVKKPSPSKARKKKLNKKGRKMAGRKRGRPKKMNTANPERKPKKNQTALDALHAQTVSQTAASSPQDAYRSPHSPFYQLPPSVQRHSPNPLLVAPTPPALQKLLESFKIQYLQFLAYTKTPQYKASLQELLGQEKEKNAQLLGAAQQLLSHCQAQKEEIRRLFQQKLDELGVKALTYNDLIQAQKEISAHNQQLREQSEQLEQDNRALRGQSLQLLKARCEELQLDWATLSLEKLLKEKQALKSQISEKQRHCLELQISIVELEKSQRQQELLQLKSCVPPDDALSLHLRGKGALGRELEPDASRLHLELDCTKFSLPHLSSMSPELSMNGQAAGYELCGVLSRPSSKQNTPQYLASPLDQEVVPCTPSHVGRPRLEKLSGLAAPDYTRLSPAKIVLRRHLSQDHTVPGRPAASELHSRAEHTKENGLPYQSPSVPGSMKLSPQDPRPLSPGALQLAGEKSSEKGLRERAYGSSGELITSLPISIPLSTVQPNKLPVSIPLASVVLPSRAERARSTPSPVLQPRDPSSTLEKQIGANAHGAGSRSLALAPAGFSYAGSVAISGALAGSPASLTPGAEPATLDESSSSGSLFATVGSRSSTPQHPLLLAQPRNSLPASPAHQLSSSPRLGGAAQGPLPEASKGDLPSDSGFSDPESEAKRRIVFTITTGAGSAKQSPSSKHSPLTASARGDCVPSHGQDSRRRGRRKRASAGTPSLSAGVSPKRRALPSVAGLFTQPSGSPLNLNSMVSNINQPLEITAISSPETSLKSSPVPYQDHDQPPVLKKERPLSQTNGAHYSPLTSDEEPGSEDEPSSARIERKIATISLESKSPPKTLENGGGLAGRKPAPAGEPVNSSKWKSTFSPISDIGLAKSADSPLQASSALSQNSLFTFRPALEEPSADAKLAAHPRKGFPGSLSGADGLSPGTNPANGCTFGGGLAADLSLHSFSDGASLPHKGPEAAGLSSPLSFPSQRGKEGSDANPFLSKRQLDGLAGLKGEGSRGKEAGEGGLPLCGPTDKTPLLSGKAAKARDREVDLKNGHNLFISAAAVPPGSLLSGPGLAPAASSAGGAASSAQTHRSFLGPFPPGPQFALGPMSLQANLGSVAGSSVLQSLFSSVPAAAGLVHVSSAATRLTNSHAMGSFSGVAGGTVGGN

[2] = target: T1, Histone-lysine N-methyltransferase NSD2 (Homo sapiens, UniProt O96028); test: Inhibition of full-length NSD2 (unknown origin) using HeLa oligonucleosome as substrate preincubated for 15 mins followed by substrate addition measured after 45 mins in presence of SAM by MTaseGlo assay
T1 sequence (O96028 whole entry): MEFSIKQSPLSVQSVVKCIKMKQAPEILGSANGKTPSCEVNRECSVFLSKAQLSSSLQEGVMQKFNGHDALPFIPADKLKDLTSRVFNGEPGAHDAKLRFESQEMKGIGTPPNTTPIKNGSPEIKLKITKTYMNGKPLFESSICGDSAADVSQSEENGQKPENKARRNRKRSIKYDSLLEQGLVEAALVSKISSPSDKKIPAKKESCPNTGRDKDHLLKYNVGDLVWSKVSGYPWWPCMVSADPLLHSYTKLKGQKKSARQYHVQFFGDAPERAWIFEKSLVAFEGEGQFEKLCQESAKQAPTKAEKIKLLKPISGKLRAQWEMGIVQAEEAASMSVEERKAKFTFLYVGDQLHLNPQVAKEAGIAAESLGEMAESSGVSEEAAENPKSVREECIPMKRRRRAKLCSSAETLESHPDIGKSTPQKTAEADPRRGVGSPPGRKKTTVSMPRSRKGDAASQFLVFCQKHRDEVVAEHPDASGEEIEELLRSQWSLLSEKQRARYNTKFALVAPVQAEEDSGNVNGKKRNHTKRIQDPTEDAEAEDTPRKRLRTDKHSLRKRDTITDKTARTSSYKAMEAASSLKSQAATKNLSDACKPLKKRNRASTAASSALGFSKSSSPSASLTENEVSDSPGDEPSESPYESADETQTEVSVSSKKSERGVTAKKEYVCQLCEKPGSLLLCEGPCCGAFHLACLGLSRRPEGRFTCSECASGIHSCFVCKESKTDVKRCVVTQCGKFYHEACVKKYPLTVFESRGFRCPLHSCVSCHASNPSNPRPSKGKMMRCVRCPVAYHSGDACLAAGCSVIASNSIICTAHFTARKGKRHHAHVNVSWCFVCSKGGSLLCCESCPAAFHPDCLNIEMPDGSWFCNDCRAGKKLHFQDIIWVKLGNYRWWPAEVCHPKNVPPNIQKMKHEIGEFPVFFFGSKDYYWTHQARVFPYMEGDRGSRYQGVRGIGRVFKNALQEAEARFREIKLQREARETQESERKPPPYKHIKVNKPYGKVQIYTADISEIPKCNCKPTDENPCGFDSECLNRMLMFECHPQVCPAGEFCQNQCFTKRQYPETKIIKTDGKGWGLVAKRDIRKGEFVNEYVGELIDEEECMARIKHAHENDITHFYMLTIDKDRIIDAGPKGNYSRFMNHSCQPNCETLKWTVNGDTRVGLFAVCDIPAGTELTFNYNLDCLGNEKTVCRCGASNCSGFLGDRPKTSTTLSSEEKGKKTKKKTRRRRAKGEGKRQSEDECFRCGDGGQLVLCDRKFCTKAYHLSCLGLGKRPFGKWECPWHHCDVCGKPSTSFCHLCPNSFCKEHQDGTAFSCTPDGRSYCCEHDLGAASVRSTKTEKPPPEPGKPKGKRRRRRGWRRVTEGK

[3] = target: T2, Arsenite methyltransferase (Homo sapiens, UniProt Q9HBK9); test: Inhibition of human AS3MT using NaAsO2 as substrate preincubated for 30 minutes followed by substrate addition measured after 90 mins in presence of SAM
T2 sequence (Q9HBK9 whole entry): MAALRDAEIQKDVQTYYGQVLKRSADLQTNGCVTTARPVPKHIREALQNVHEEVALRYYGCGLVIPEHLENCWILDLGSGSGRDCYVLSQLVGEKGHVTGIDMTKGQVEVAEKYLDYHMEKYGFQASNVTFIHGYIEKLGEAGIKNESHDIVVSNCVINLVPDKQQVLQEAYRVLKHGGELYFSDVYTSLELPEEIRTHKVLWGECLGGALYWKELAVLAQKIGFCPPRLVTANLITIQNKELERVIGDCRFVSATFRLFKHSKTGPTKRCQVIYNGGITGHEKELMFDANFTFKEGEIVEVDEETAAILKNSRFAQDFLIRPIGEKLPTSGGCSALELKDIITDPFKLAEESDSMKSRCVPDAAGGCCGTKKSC

Row | IC50 [1] [µM] | IC50 [2] [µM] | IC50 [3] [µM] | Structure (SMILES)
1 | > 100 | 9.1 | 5 | N#Cc1c(N)[nH]c2ccc(Oc3ccc(NC(=O)[C@H](N)CO)cc3)cc12
2 | 99 | 12 | 1.8 | CCn1c(N)c(C#N)c2cc(Oc3ccc(NC(=O)CN)cc3)ccc21
3 | > 100 | 47 | 3.3 | Cn1c(N)c(C#N)c2cc(Oc3ccc(NC(=O)CN)cc3)ccc21
4 | > 100 | 11 | 3 | N#Cc1c(N)[nH]c2ccc(Oc3ccc(NC(=O)[C@@H](N)CO)cc3)cc12
5 | – | – | 8.3 | CN(C)C(=O)Cn1c(N)c(C#N)c2cc(Oc3ccc(NC(=O)CN)cc3)ccc21
6 | – | – | > 100 | CCn1cc(C#N)c2cc(Oc3ccc(NC(=O)CN)cc3)ccc21
7 | – | – | 20 | N#Cc1c(N)n(CC(N)=O)c2ccc(Oc3ccc(NC(=O)CN)cc3)cc12
8 | > 100 | 49 | 3.6 | N#Cc1c(N)[nH]c2ccc(OCc3ccccc3)cc12
9 | > 100 | > 100 | 1.4 | Cn1c(N)c(C#N)c2cc(OCc3cccc(N)c3)ccc21
10 | > 100 | > 100 | 13.6 | Cn1c(N)c(C#N)c2cc(OCc3ccccc3)ccc21
11 | – | – | 2.9 | Cn1c(N)c(C#N)c2cc(OCc3cccc(NC(=O)C(N)CO)c3)ccc21 (centres undefined)
12 | 96 | 5.8 | 1.5 | N#Cc1c(N)n(CC2CC2)c2ccc(Oc3ccc(NC(=O)CN)cc3)cc12
13 | – | – | > 100 | CC(C)(C)C(=O)Nc1[nH]c2ccc(OCc3ccccc3)cc2c1C#N
